US11873496B2, “Methods of altering gene expression by perturbing transcription factor multimers that structure regulatory loops” (Whitehead Institute for Biomedical Research, priority 2017, dated 2024)

Key:
AID-tagged CTCF protein [1] = molecular target: T1, AID-tagged CTCF protein (UniProt P93830+Q61164+Q7XVM8); conditions: washout; cited from earlier work
T1 construct: The AID tag was knocked-in at the endogenous Ctcf gene locus

AID-tagged CTCF protein [2] = molecular target: T2, AID-tagged CTCF protein (UniProt Q61164); conditions: AID tag knocked-in at endogenous Ctcf locus; cited from earlier work
T2 construct: The AID tag was knocked-in at the endogenous Ctcf gene locus
T2 sequence (Q61164+P93830 fused): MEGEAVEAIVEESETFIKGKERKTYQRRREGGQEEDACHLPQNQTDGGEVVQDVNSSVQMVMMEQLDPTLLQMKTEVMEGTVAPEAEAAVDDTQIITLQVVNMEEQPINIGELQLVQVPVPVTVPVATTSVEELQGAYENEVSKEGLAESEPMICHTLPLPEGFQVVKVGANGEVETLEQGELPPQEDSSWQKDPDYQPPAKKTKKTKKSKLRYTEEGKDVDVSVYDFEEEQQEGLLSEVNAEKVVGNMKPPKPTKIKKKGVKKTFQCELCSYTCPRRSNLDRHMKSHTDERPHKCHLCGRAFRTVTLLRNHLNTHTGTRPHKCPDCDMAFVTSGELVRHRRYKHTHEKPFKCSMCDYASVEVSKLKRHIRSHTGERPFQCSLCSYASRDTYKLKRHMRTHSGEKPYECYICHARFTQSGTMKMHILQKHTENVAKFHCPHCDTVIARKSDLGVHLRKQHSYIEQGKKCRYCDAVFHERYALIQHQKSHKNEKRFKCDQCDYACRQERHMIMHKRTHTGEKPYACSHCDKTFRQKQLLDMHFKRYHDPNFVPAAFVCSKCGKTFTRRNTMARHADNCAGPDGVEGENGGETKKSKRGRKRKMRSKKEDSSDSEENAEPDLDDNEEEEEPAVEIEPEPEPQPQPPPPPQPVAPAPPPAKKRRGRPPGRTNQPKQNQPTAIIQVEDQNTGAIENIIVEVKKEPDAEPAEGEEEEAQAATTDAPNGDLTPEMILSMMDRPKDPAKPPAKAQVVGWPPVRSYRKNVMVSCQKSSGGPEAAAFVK
T2 sequence (Q7XVM8 whole entry, further chain): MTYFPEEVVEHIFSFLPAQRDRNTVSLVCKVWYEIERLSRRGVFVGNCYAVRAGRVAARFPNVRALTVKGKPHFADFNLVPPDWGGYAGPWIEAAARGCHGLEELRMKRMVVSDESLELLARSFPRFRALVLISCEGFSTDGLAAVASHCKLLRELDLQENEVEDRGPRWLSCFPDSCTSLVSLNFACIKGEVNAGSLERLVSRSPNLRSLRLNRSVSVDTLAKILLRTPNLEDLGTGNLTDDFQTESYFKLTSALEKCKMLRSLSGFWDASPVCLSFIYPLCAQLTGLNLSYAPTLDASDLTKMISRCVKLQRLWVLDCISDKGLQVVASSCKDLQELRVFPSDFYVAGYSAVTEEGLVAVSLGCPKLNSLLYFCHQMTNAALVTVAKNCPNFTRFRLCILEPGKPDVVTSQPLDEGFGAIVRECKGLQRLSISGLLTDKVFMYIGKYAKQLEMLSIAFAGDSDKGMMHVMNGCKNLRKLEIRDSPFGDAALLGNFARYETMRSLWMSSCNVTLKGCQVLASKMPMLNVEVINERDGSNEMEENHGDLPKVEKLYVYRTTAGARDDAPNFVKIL
T2 sequence (Q9WTX5 whole entry partner): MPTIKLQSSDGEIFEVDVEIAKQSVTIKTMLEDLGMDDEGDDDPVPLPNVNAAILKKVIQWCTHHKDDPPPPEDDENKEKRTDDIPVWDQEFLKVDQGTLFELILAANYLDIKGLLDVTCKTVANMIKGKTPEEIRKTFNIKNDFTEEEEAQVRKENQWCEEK

YY1 = YY1 (Homo sapiens, UniProt P25490 P25490:1-414); experiment: competition; 100 nM competitor abrogated YY1-enhanced circularization of template, 20 C
Chain of YY1 (P25490 whole entry, one chain of several): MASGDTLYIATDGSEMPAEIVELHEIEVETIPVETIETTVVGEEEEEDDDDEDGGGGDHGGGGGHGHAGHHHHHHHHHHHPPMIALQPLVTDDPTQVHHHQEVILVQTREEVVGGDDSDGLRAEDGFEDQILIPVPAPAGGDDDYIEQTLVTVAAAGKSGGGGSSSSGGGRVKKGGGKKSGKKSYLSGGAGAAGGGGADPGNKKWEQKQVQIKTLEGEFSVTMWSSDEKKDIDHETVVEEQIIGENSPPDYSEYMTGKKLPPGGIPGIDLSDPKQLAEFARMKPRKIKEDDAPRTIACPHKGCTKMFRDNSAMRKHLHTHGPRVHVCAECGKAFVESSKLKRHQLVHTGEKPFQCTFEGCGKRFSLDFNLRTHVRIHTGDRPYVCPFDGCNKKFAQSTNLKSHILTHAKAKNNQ
Method: Reactions were incubated at 20° C. for 20 minutes to allow binding of YY1 to the DNA. For each timepoint 6 µL of the reaction was withdrawn and quenched in a total volume of 9 µL with a final concentration of 30 mM EDTA, 1×NEB loading dye (NEB, B7024S), 1 ug/µL of proteinase K, and heated at 65° C. for 5 minutes. Timepoint 0 was taken and then 600 units of T4 DNA ligase (NEB M0202) was added and the reaction was carried out at 20° C. Indicated timepoints were taken and then samples were run on a 4-20% TBE gradient gel for three hours at 120 V. The gel was stained with SYBR Gold (Life Technologies S11494) and imaged with a CCD camera.

[3] = molecular target: T3, FLAG-tagged YY1 and HA-tagged YY1 (Homo sapiens, UniProt P25490); experiment: Co-immunoprecipitation of FLAG-tagged and HA-tagged YY1 from nuclear extracts; type: binding, mouse; conditions: nuclear extract treated prior to immunoprecipitation
T3 construct: expressed in transfected cells; host or cells: V6.5 mESCs, transient transfection, nuclear extract
T3 sequence (P25490 whole entry): as the sequence (P25490 whole entry, one chain of several) above
T3 sequence (P25490 whole entry): as the sequence (P25490 whole entry, one chain of several) above
Method: V6.5 mESCs were transfected with pcDNA3 FLAG YY1 and pcDNA3 […] using Lipofectamine 3000 (Life Technologies #L3000001) according to the manufacturer's instructions. Briefly, cells were split and 8 million cells were plated onto a gelatinized 15 cm plate. 7.5 μg of each plasmid was mixed with 30 μL P3000 reagent and 75 μL Lipofectamine 3000 reagent (Life Technologies #L3000001) in 1250 μL of DMEM (Life technologies #11995-073). After ˜12-16 hours media was changed.
Cells were harvested 48 hours after transfection by washing twice with ice-cold PBS and collected by scraping in ice-cold PBS. Harvested cells were centrifuged at 1,000 rcf for 3 minutes to pellet cells. Supernatant was discarded and cell pellets were flash frozen and stored at −80° C. until ready to prepare nuclear extract. For each 15 cm plate of cells, frozen cell pellets were resuspended in 5 mL of ice-cold hypotonic lysis buffer (20 mM HEPES-KOH pH 7.5, 20% glycerol, 10 mM NaCl, 0.1% Triton X-100, 1.5 mM MgCl2, 0.5 mM DTT and protease inhibitor (Roche, 11697498001)) and incubated on ice for 10 minutes to extract nuclei. Nuclei were pelleted by centrifugation at 14,000 rcf for 10 minutes at 4° C. […] Protein concentration of extracts was quantified by BCA assay (Thermo Scientific, 23225) and protein concentration was adjusted to 400 μg/mL by addition of appropriate volume of 1:2 nuclear extraction buffer:dilution buffer. […]

T1 sequence (Q61164+P93830 fused): as the sequence (Q61164+P93830 fused) above
T1 sequence (Q7XVM8 whole entry): as the sequence (Q7XVM8 whole entry, further chain) above
T1 sequence (Q9WTX5 whole entry partner): as the sequence (Q9WTX5 whole entry partner) above

Which “washout time allowing recovery of CTCF protein” value (AID-tagged CTCF protein [1]) does the source give for `O=C(O)Cc1c[nH]c2ccccc12` [auxin] here?
Its value is 2 days.

And the CTCF protein degradation (AID-tagged CTCF protein [2])?
Its CTCF protein degradation is “proteasome-mediated degradation”.

B1: competitor DNA with YY1 consensus sites (dsDNA)
DNA 1: GAGCAACAACAACAACGAACCGGTTCGACCTCCCCGGCCATCTTTCGACCTCCCCGGCCATCTTTCGACCTCCCCGGCCATCTTTCGACCTCCCCGGCCATCTTTCGACCTCCCCGGCCATCTTTCGACCTCCCCGGCCATCTTTCGACCTCCCCGGCCATCTTTCGACCTCCCGTCGACAGAGGCAGCAAAAGCCAGA
DNA 2: TCTGGCTTTTGCTGCCTCTGTCGACGGGAGGTCGAAAGATGGCCGGGGAGGTCGAAAGATGGCCGGGGAGGTCGAAAGATGGCCGGGGAGGTCGAAAGATGGCCGGGGAGGTCGAAAGATGGCCGGGGAGGTCGAAAGATGGCCGGGGAGGTCGAAAGATGGCCGGGGAGGTCGAACCGGTTCGTTGTTGTTGTTGCTC
Does B1 bind (YY1)?
Result: binds

B2: RNase A: RNase A (Sigma, R4642) used to treat nuclear extract (protein, UniProt P61823 27-150, looked up)
Ribonuclease pancreatic: KETAAAKFERQHMDSSTSAASSSNYCNQMMKSRNLTKDRCKPVNTFVHESLADVQAVCSQKNVACKNGQTNCYQSYSTMSITDCRETGSSKYPNCAYKTTQANKHIIVACEGNPYVPVHFDASV
For B2, which “reduction in the amount of co-immunoprecipitated YY1 partner protein” value [3] is on record?
Its value is about 60%.
